{
  "source": "patent US8962032B2",
  "about": "“Modulator” (The Queen's University of Belfast, priority 2009, dated 2015)",
  "system": "C57bl/6 bone marrow derived macrophages",
  "test": "LPS-induced TNFα and IL-6 in C57bl/6 BMDM with controls",
  "assay_type": "cell-based",
  "conditions": "C57bl/6 BMDM re-stimulated with 1 ng/ml LPS ± 25 μg/ml nanoparticles or controls",
  "description": "FIG. 9 illustrates reduction of TNFα and IL-6 production from C57bl/6 bone marrow derived macrophages (BMDM) incubated with LPS and α2,8 sialic acid conjugated PLGA nanoparticles. The BMDM were stimulated with 1 ng/ml LPS overnight to up-regulate Siglec-E. Cells were washed twice in serum-free DMEM prior to resting for 2 hr. Cells were re-stimulated with 1 ng/ml LPS±α2,8 sialic acid conjugated PLGA nanoparticles (NP) or appropriate controls—Unconjugated (nude) NP, Sialic acid washed, but unconjugated NP, Sialic acid at same concentration as NP or nanoparticles conjugated to the non-Siglec binding glucosamine. TNFα and IL-6 was measured by ELISA. One way ANOVA was used to determine significance.\n4×10^4/well C57bl/6 bone marrow derived macrophages were stimulated with 1 ng/ml LPS overnight to up-regulate Siglec-E. Cells were washed twice in serum-free DMEM prior to resting for 2 hr. The results of cells re-stimulated with 1 ng/ml LPS±α2,8 sialic acid conjugated PLGA nanoparticles (NP) or appropriate controls—Unconjugated (nude) nanoparticles, Sialic acid washed—but unconjugated nanoparticles, Sialic acid at same concentration as nanoparticles or nanoparticles conjugated to the non-Siglec binding glucosamine are shown. TNFα and IL-6 was measured by ELISA. One way ANOVA with post-hoc Tukey test was used to determine significance. P=0.001.",
  "data": [
    {"substance": "alpha 2-8 diacetylneuraminic acid [sialic acid]", "values": [
      {"measurement": "IL-6 (ELISA)", "value": "insufficient to cause the effect observed"},
      {"measurement": "TNFα (ELISA)", "value": "insufficient to cause the effect observed"}
    ]}
  ]
}
